According to article PMC10108392, “Rimonabant-Based Compounds Bearing Hydrophobic Amino Acid Derivatives as Cannabinoid Receptor Subtype 1 Ligands” (ACS Medicinal Chemistry Letters, 2023):

Assays:
CB1R [1] = target: T1, CB1R (Rattus norvegicus, UniProt P20272); experiment: [3H]WIN55,212-2 radioligand competition binding assay in rat brain membrane homogenate; conditions: for Ki [3H]WIN55,212-2 binding: 5 nM [3H]WIN55,212-2, ± SEM, n.b. = no binding of ligands was observed; for Ki: read-out: Ki [3H]WIN55,212-2 binding, 5 nM [3H]WIN55,212-2, ± SEM, n.b. = no binding of ligands was observed
T1 construct: Crude membrane fractions were prepared from the brain; from tissue; host or cells: Wistar rat whole brain, crude membrane fraction
T1 sequence (P20272 whole entry): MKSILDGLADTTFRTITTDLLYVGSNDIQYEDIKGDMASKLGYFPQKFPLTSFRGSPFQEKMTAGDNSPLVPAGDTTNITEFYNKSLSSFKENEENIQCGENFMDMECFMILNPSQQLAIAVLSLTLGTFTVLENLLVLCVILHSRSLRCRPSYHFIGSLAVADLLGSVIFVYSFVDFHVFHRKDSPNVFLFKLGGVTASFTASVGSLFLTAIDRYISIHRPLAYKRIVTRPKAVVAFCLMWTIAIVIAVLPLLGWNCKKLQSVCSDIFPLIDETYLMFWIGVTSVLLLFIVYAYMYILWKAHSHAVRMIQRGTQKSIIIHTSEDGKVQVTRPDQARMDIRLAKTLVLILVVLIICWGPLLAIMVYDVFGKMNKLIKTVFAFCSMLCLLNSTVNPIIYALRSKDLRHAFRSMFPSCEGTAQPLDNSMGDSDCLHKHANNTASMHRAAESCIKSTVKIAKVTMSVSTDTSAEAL
Method: (§1) Our novel chemical compounds were tested in vitro for their binding ability, efficacy, and potency on CB1R in rat brain membrane homogenate (Table 2 and SI, Figure S1). CB1Rs are the most abundant G-protein coupled receptors in the rodent and mammalian brain; therefore, this is an appropriate model to characterize our ligands in a more physiological system.
(§2) In Vitro Biological Assays
(§3) Preparation of Brain Membrane Homogenates
(§4) Wistar rats were locally bred and handled according to the EU Directive 2010/63/EU and to the Regulations on Animal Protection (40/2013. (II. 14.) Korm. r.) of Hungary. Crude membrane fractions were prepared from the brain. Brains were quickly removed from the euthanized rats and directly put in an ice-cold 50 mM Tris-HCl buffer (pH 7.4). The collected tissue was then homogenized in 30 volumes (v/w) of an ice-cold buffer with a Braun Teflon-glass homogenizer at the highest rpm. The homogenate was centrifuged at 20,000 × g for 25 min, and the resulting pellet was suspended in the same volume of a cold buffer followed by incubation at 37 °C for 30 min to remove endogenous ligands. Centrifugation was then repeated. The final pellets were taken up in five volumes of a 50 mM Tris-HCl (pH 7.4) buffer containing 0.32 M sucrose and stored at -80 °C. Prior to the experiment, aliquots were thawed and centrifuged at 20,000 ×g for 25 min and then they were resuspended in 50 mM Tris-HCl (pH 7.4), homogenized with a Douncer, followed by the determination of the protein concentration by the method of Bradford. The membrane suspensions were immediately used either in radioligand binding experiments or in [35S]GTPγS functional assays.
Radioligand Competition Binding Assay
Binding experiments were performed at 30 °C for 60 min in a 50 mM Tris-HCl binding buffer (pH 7.4) containing 2.5 mM of EGTA, 5 mM of MgCl2 and 0.5 mg/mL of fatty acid-free BSA in plastic tubes in a total assay volume of 1 mL that contained 0.3-0.5 mg/mL of a membrane protein. Competition binding […]
ligands. […] The incubation […]
was terminated by diluting the samples with an ice-cold wash buffer (50 mM of Tris-HCl, 2.5 mM of EGTA, 5 mM of MgCl2, 0.5% fatty acid free BSA, pH 7.4), followed by repeated washing and rapid filtration through Whatman GF/B glass fiber filters (Whatman Ltd., Maidstone, UK) pre-soaked with 0.1% polyethyleneimine (30 min before the filtration). Filtration was performed with a 24-well Brandel Cell Harvester (Gaithersburg, MD, USA). Filters were air-dried and immersed into Ultima Gold MV scintillation cocktail, and then radioactivity was measured with a TRI-CARB 2100TR liquid scintillation analyzer (Packard, Perkin Elmer, Waltham, MA, USA). […]
The results of the competition binding studies are reported as means ± S.E.M. of at least three independent experiments each performed in duplicate. In competition binding studies, the inhibitory constants (Ki) were calculated from the inflection points of the displacement curves using non-linear least-square curve fitting and the Cheng-Prusoff equation, Ki= […]/(1 + [ligand]/Kd). […]

CB1R [2] = target: T1, CB1R; experiment: Ligand stimulated [35S]GTPγS binding assay in rat brain membranes; type: biochemical; conditions: rat brain membranes; ± SEM; read-out: [35S]GTPγS stimulation EC50
Method: as §1, §2, §3
as §4, with “assays. […]” for “assays.”
was terminated by diluting the samples with an ice-cold wash buffer (50 mM of Tris-HCl, 2.5 mM of EGTA, 5 mM of MgCl2, 0.5% fatty acid free BSA, pH 7.4), followed by repeated washing and rapid filtration through Whatman GF/B glass fiber filters (Whatman Ltd., Maidstone, UK) pre-soaked with 0.1% polyethyleneimine (30 min before the filtration). Filtration was performed with a 24-well Brandel Cell Harvester (Gaithersburg, MD, USA). Filters were air-dried and immersed into Ultima Gold MV scintillation cocktail, and then radioactivity was measured with a TRI-CARB 2100TR liquid scintillation analyzer (Packard, Perkin Elmer, Waltham, MA, USA).
Ligand Stimulated [35S]GTPγS Binding Assay
Rat brain membranes (30 µg protein/tube), prepared as described above, were incubated with 0.05 nM of […]
mM of NaCl, 3 mM of MgCl2 and 1 mM of EGTA in a 50 mM Tris-HCl buffer (pH 7.4) for 60 min at 30 °C. Basal [35S]GTPγS binding was measured in the absence of ligands and set as 100%. Nonspecific […]
binding was determined by the addition of 10 µM unlabelled GTPγS and subtracted from total binding.
Incubation, filtration and radioactivity measurements of the samples were carried out as described above. […]
All […]
data and curves were analyzed by GraphPad Prism 5.0 (San Diego, CA, USA).

Row | Compound | Ki [3H]WIN55,212-2 binding (CB1R [1]) | EC50 (CB1R [2]) [nM] | Ki (CB1R [1]) [nM]
1 | CC(C)[C@H](NC(=O)c1cc(-n2cccc2)n(-c2ccc(Cl)cc2)n1)C(=O)O [Compound 1, RS2689-Val-OH] | n.b. | 5870 ± 372 | 
2 | CC(C)(C)[C@H](NC(=O)c1cc(-n2cccc2)n(-c2ccc(Cl)cc2)n1)C(=O)O [Compound 2, RS2689-tLeu-OH] | n.b. | 712 ± 18 | 
3 | Cc1c(C(=O)N[C@H](C(=O)O)C(C)C)nn(-c2ccc(Cl)cc2)c1-n1cccc1 [Compound 3, RS2691-Val-OH] | n.b. | > 10000 | 
4 | Cc1c(C(=O)N[C@H](C(=O)O)C(C)(C)C)nn(-c2ccc(Cl)cc2)c1-n1cccc1 [Compound 4, RS2691-tLeu-OH] |  | 4610 ± 303 | 5880 ± 152
5 | CC(C)[C@H](NC(=O)c1cc(-n2cccc2)n(-c2ccccc2)n1)C(=O)O [Compound 5, RS2708-Val-OH] | n.b. | 1650 ± 75 | 
6 | CC(C)(C)[C@H](NC(=O)c1cc(-n2cccc2)n(-c2ccccc2)n1)C(=O)O [Compound 6, RS2708-tLeu-OH] | n.b. | 2450 ± 118 | 
7 | Cc1c(C(=O)N[C@H](C(=O)O)C(C)C)nn(-c2ccccc2)c1-n1cccc1 [Compound 7, RS2709-Val-OH] | n.b. | 2550 ± 106 | 
8 | Cc1c(C(=O)N[C@H](C(=O)O)C(C)(C)C)nn(-c2ccccc2)c1-n1cccc1 [Compound 8, RS2709-tLeu-OH] | n.b. | 3400 ± 118 | 
9 | Cc1c(C(=O)N[C@H](C(=O)O)C(C)C)nn(-c2ccc(Cl)cc2Cl)c1-n1cccc1Cl [Compound 9, RS3516-Val-OH] | n.b. | 3430 ± 283 | 
10 | Cc1c(C(=O)N[C@H](C(=O)O)C(C)(C)C)nn(-c2ccc(Cl)cc2Cl)c1-n1cccc1Cl [Compound 10, RS3516-tLeu-OH] | n.b. | 1650 ± 98 | 
11 | CC(C)[C@H](NC(=O)c1cc(-n2cccc2)n(-c2ccc(Cl)cc2)n1)C(N)=O [Compound 11, RS2689-Val-NH2] |  | 1160 ± 79 | 341 ± 19
12 | CC(C)(C)[C@H](NC(=O)c1cc(-n2cccc2)n(-c2ccc(Cl)cc2)n1)C(N)=O [Compound 12, RS2689-tLeu-NH2] |  |  | 102 ± 16
13 | Cc1c(C(=O)N[C@H](C(N)=O)C(C)C)nn(-c2ccc(Cl)cc2)c1-n1cccc1 [Compound 13, RS2691-Val-NH2] |  |  | 123 ± 13
14 | CC(C)[C@H](NC(=O)c1cc(-n2cccc2)n(-c2ccccc2)n1)C(N)=O [Compound 15, RS2708-Val-NH2] | n.b. | 1230 ± 121 | 
